Reference: patent publication US9850251B2, “Imidazole derivative used as antiviral agent and use therof in preparation of medicament” (priority 2013, dated 2017)

Experiments:
[1] = tested on: RSV respiratory tract virus (A long strain); assay: RSV long CPE assay (cytopathic effect assay), EC50; format: cell-based; conditions: human respiratory syncytial virus, HEp-2, 120 h; Hep2 cells infected with RSV A long strain, 5 days, CCK-8 readout
Method: (§1) Detect EC50 and CC50 values of anti RSV respiratory tract virus compounds through the cytopathic effect assay.
Virus strain: RSV respiratory tract virus (A long strain)
(§2) The cell plate was centrifugated (300 rpm) to make the cells adherent to the wall, placed into a 37° C., 5% CO2 incubator overnight.
(§3) 1) the compound in 100% DMSO underwent a semi logarithmic dilution, then was added to the cell plate with a Echo liquid handler. Ensure that the final concentration of DMSO was 1%;
(§4) 2) Cell-control hole: no compound and viruse were added; virus-control hole: no compound was added.
dilute RSV viruses to 100 TCID50/30 μL with medium cultured with 4° C. cells, and then add the diluted viruses to a cell plate (30 μL/hole) with Multidrop® automatic liquid distributor, and then placed into a 37° C., 5% CO2 culture incubator for 5 days.
1) after 5 days, observe the pathological change in each hole.
(§5) 2) add CCK-8 (Dojindo-CK04-20, 6 μL/hole) to 384 well plate with Multidrop® automatic liquid distributor;
(§6) 3) place the plate at a 37° C., 5% CO2 culture incubator for 3˜4 h, read the absorbance value with SPECTRA max 340PC_Molecular device at 450 nm and 630 nm;

[2] = RSV long CPE assay (cytopathic effect assay), CC50 toxicity in vitro; format: cell-based; conditions: human, Hep2 cells, CCK-8 readout, top concentration 100 μM
Method: as §1, §2, §3, §4, §5, §6

For CC(C)=C(F)Cn1c(CN2C(=O)C3(CN(C(=O)OC(C)C)C3)c3ccccc32)nc2c1CCCC2 [Embodiment 71, Isopropyl 1′-((1-(2-fluoro-3-methylbut-2-en-1-yl)-4,5,6,7-tetrahydro-1H-benzo[d]imidazol-2-yl)methyl)-2′-oxospiro[azetidine-3,3′-indoline]-1-carboxylate], the EC50 [1] was 0.1 to 1 µM and the CC50 at 5 days [2] was greater than 100 µM.

In the case of CCOC(=O)N1CC2(C1)C(=O)N(Cc1nc3c(n1CCC(C)C)CCCC3)c1ccccc12 [Embodiment 72, Ethyl 1′-((1-isopentyl-4,5,6,7-tetrahydro-1H-benzo[d]imidazol-2-yl)methyl)-2′-oxospiro[azetidine-3,3′-indoline]-1-carboxylate], the EC50 [1] is reported as less than 0.1 µM and the CC50 at 5 days [2] is reported as greater than 100 µM.

For CCOC(=O)N1CC2(C1)C(=O)N(Cc1nc3c(n1CCCCF)CCCC3)c1ccccc12 [Embodiment 73], the EC50 [1] was less than 0.1 µM and the CC50 at 5 days [2] was greater than 100 µM.

Compound CCOC(=O)N1CC2(C1)C(=O)N(Cc1nc3c(n1CCCC#N)CCCC3)c1ccccc12 [Embodiment 74, Ethyl 1′-((1-(3-cyanopropyl)-4,5,6,7-tetrahydro-1H-benzo[d]imidazol-2-yl)methyl)-2′-oxospiro[azetidine-3,3′-indoline]-1-carboxylate] has an EC50 [1] of less than 0.1 µM and a CC50 at 5 days [2] greater than 100 µM.

Compound CCOC(=O)N1CC2(C1)C(=O)N(Cc1nc3c(n1CCCC(F)(F)F)CCCC3)c1ccccc12 [Embodiment 75, Ethyl 2′-oxo-1′-((1-(4,4,4-trifluorobutyl)-4,5,6,7-tetrahydro-1H-benzo[d]imidazol-2-yl)methyl)spiro[azetidine-3,3′-indoline]-1-carboxylate] has an EC50 [1] of less than 0.1 µM and a CC50 at 5 days [2] greater than 100 µM.

Compound CCOC(=O)N1CC2(C1)C(=O)N(Cc1nc3c(n1CCCS(C)(=O)=O)CCCC3)c1ccccc12 [Embodiment 76, Ethyl 1′-((1-(3-(methylsulfonyl)propyl)-4,5,6,7-tetrahydro-1H-benzo[d]imidazol-2-yl)methyl)-2′-oxospiro[azetidine-3,3′-indoline]-1-carboxylate] has an EC50 [1] of less than 0.1 µM and a CC50 at 5 days [2] greater than 100 µM.

Compound CC(C)OC(=O)N1CC2(C1)C(=O)N(Cc1nc3c(n1CCCCO)CCCC3)c1ccc(Br)cc12 [Embodiment 78, Isopropyl 5′-bromo-1′-((1-(4-hydroxybutyl)-4,5,6,7-tetrahydro-1H-benzo[d]imidazol-2-yl)methyl)-2′-oxospiro[azetidine-3,3′-indoline]-1-carboxylate] has an EC50 [1] of less than 0.1 µM and a CC50 at 5 days [2] greater than 100 µM.

With CC(C)OC(=O)N1CC2(C1)C(=O)N(Cc1nc3c(n1CCCC(F)(F)F)CCCC3)c1ccc(Br)cc12 [Embodiment 79, Isopropyl 5′-bromo-2′-oxo-1′-((1-(4,4,4-trifluorobutyl)-4,5,6,7-tetrahydro-1H-benzo[d]imidazol-2-yl)methyl)spiro[azetidine-3,3′-indoline]-1-carboxylate] the EC50 [1] was less than 0.1 µM and the CC50 at 5 days [2] was greater than 100 µM.

With CC(C)OC(=O)N1CC2(C1)C(=O)N(Cc1nc3c(n1CCCC(F)(F)F)CCCC3)c1ccc(Cl)cc12 [Embodiment 80, Isopropyl 5′-chloro-2′-oxo-1′-((1-(4,4,4-trifluorobutyl)-4,5,6,7-tetrahydro-1H-benzo[d]imidazol-2-yl)methyl)spiro[azetidine-3,3′-indoline]-1-carboxylate] the EC50 [1] was less than 0.1 µM and the CC50 at 5 days [2] was greater than 100 µM.

CC(C)OC(=O)N1CC2(C1)C(=O)N(Cc1nc3c(n1CCCC(F)(F)F)CCCC3)c1cc(Cl)ccc12 [Embodiment 81, Isopropyl 6′-chloro-2′-oxo-1′-((1-(4,4,4-trifluorobutyl)-4,5,6,7-tetrahydro-1H-benzo[d]imidazol-2-yl)methyl)spiro[azetidine-3,3′-indoline]-1-carboxylate] gave an EC50 [1] of less than 0.1 µM and a CC50 at 5 days [2] greater than 100 µM.

Compound CC(C)OC(=O)N1CC2(C1)C(=O)N(Cc1nc3c(n1CCCC(F)(F)F)CCCC3)c1cc(F)ccc12 [Embodiment 82, Isopropyl 6′-fluoro-2′-oxo-1′-((1-(4,4,4-trifluorobutyl)-4,5,6,7-tetrahydro-1H-benzo[d]imidazol-2-yl)methyl)spiro[azetidine-3,3′-indoline]-1-carboxylate] has an EC50 [1] of less than 0.1 µM and a CC50 at 5 days [2] greater than 100 µM.

CCOC(=O)N1CC2(C1)C(=O)N(Cc1nc3c(n1CCCC(F)(F)F)CCCC3)c1cc(F)ccc12 [Embodiment 83, Ethyl 6′-fluoro-2′-oxo-1′-((1-(4,4,4-trifluorobutyl)-4,5,6,7-tetrahydro-1H-benzo[d]imidazol-2-yl)methyl)spiro[azetidine-3,3′-indoline]-1-carboxylate] gave an EC50 [1] of less than 0.1 µM and a CC50 at 5 days [2] greater than 100 µM.

O=C(C1CC1)N1CC2(C1)C(=O)N(Cc1nc3c(n1CCCC(F)(F)F)CCCC3)c1cc(F)ccc12 [Embodiment 84, 1-(Cyclopropanecarbonyl)-6′-fluoro-1′-((1-(4,4,4-trifluorobutyl)-4,5,6,7-tetrahydro-1H-benzo[d]imidazol-2-yl)methyl)spiro[azetidine-3,3′-indoline]-2′-one] showed an EC50 [1] of less than 0.1 µM and a CC50 at 5 days [2] greater than 100 µM.

In the case of CC(C)OC(=O)N1CC2(C1)C(=O)N(Cc1nc3c(n1CCCCO)CCCC3)c1cccc(Cl)c12 [Embodiment 85, Isopropyl 4′-chloro-1′-((1-(4-hydroxybutyl)-4,5,6,7-tetrahydro-1H-benzo[d]imidazol-2-yl)methyl)-2′-oxospiro[azetidine-3,3′-indoline]-1-carboxylate], the EC50 [1] is reported as less than 0.1 µM and the CC50 ([2]; 5 days) is reported as greater than 100 µM.

Work on CC(C)OC(=O)N1CC2(C1)C(=O)N(Cc1nc3c(n1CCCC(F)(F)F)CCCC3)c1cccc(Cl)c12 [Embodiment 86, Isopropyl 4′-chloro-2′-oxo-1′-((1-(4,4,4-trifluorobutyl)-4,5,6,7-tetrahydro-1H-benzo[d]imidazol-2-yl)methyl)spiro[azetidine-3,3′-indoline]-1-carboxylate] yielded an EC50 [1] of less than 0.1 µM and a CC50 at 5 days [2] greater than 100 µM.

For CCOC(=O)N1CC2(C1)C(=O)N(Cc1nc3c(n1CCCC(F)(F)F)CCCC3)c1cnccc12 [Embodiment 87, Ethyl 2′-oxo-1′-((1-(4,4,4-trifluorobutyl)-4,5,6,7-tetrahydro-1H-benzo[d]imidazol-2-yl)methyl)-1′,2′-dihydrospiro[azetidine-3,3′-pyrrolo[2,3-c]pyridine]-1-carboxylate], the EC50 [1] was less than 0.1 µM and the CC50 at 5 days [2] was greater than 100 µM.

Work on CC(C)OC(=O)N1CC2(C1)C(=O)N(Cc1nc3c(n1CCCC(F)(F)F)CCCC3)c1cnccc12 [Embodiment 88, Isopropyl 2′-oxo-1′-((1-(4,4,4-trifluorobutyl)-4,5,6,7-tetrahydro-1H-benzo[d]imidazol-2-yl)methyl)-1′,2′-dihydrospiro[azetidine-3,3′-pyrrolo[2,3-c]pyridine]-1-carboxylate] yielded an EC50 [1] of less than 0.1 µM and a CC50 at 5 days [2] greater than 100 µM.

Work on O=C(C1CC1)N1CC2(C1)C(=O)N(Cc1nc3c(n1CCCC(F)(F)F)CCCC3)c1cnccc12 [Embodiment 89, 1-(Cyclopropanecarbonyl)-1′-((1-(4,4,4-trifluorobutyl)-4,5,6,7-tetrahydro-1H-benzo[d]imidazol-2-yl)methyl)spiro[azetidine-3,3′-pyrrolo[2,3-c]pyridine]-2′(1′H)-one] yielded an EC50 [1] of less than 0.1 µM and a CC50 at 5 days [2] greater than 100 µM.

In the case of O=CN1CC2(C1)C(=O)N(Cc1nc3c(n1CCCC(F)(F)F)CCCC3)c1ccccc12 [Embodiment 90, 2′-Oxo-1′-((1-(4,4,4-trifluorobutyl)-4,5,6,7-tetrahydro-1H-benzo[d]imidazol-2-yl)methyl)spiro[azetidine-3,3′-indoline]-1-carbaldehyde], the EC50 [1] is reported as less than 0.1 µM and the CC50 at 5 days [2] is reported as greater than 100 µM.

For CC1(C(=O)N2CC3(C2)C(=O)N(Cc2nc4c(n2CCCC(F)(F)F)CCCC4)c2ccccc23)CC1 [Embodiment 91], the EC50 [1] was less than 0.1 µM and the CC50 at 5 days [2] was greater than 100 µM.

Work on CC(=O)N1CC2(C1)C(=O)N(Cc1nc3c(n1CCCC(F)(F)F)CCCC3)c1ccccc12 [Embodiment 92, 1-Acetyl-1′-((1-(4,4,4-trifluorobutyl)-4,5,6,7-tetrahydro-1H-benzo[d]imidazol-2-yl)methyl)spiro[azetidine-3,3′-indoline]-2′-one] yielded an EC50 [1] of less than 0.1 µM and a CC50 at 5 days [2] greater than 100 µM.

In the case of O=C(C1CC1)N1CC2(C1)C(=O)N(Cc1nc3c(n1CCCC(F)(F)F)CCCC3)c1ccccc12 [Embodiment 93, 1-(Cyclopropanecarbonyl)-1′-((1-(4,4,4-trifluorobutyl)-4,5,6,7-tetrahydro-1H-benzo[d]imidazol-2-yl)methyl)spiro[azetidine-3,3′-indoline]-2′-one], the EC50 [1] is reported as less than 0.1 µM and the CC50 at 5 days [2] is reported as greater than 100 µM.

With CCC(=O)N1CC2(C1)C(=O)N(Cc1nc3c(n1CCCC(F)(F)F)CCCC3)c1ccccc12 [Embodiment 94, 1-Propionyl-1′-((1-(4,4,4-trifluorobutyl)-4,5,6,7-tetrahydro-1H-benzo[d]imidazol-2-yl)methyl)spiro[azetidine-3,3′-indoline]-2′-one] the EC50 [1] was less than 0.1 µM and the CC50 at 5 days [2] was greater than 100 µM.

CC(C)C(=O)N1CC2(C1)C(=O)N(Cc1nc3c(n1CCCC(F)(F)F)CCCC3)c1ccccc12 [Embodiment 95, 1-Isobutyryl-1′-((1-(4,4,4-trifluorobutyl)-4,5,6,7-tetrahydro-1H-benzo[d]imidazol-2-yl)methyl)spiro[azetidine-3,3′-indoline]-2′-one] gave an EC50 [1] of less than 0.1 µM and a CC50 at 5 days [2] greater than 100 µM.
